Patent publication US20240173432A1, “Compositions and Methods for Treatment of Myotonic Dystrophy Type 1 with CRISPR/SluCas9” (Vertex Pharmaceuticals Incorporated, priority 2021, published 2024)

How the values were obtained:
[1] = test system: CUG foci in primary DM1 patient myoblasts; experiment: Single-cut screening: FISH staining of CUG RNA foci; format: cell-based, human; settings: single sgRNA, primary DM1 patient myoblasts; for % of CUG foci free nuclei (DNA-PKi): DNA-PKi treated
Procedure: Primary healthy myoblasts (P01431-18F) and DM1 patient myoblasts (03001-32F) were obtained from Cook MyoSite. Myoblasts were cultured in myoblast growth medium consisting of Myotonic Basal Medium (Cook MyoSite, MB-2222) and MyoTonic Growth Supplement (Cook MyoSite, MS-3333). Three days before nucleofection, primary human myoblasts were further purified with EasySep Human CD56 Positive Selection Kit II (StemCell Tech, 17855) following the manufacturer's instruction, and then maintained in myoblast growth medium until nucleofection.
(§1) RNPs were assembled with recombinant SluCas9 protein and chemically modified sgRNAs at a ratio of 1:3 (protein:sgRNA). For SINGLE-cut screening, RNP complexes were assembled with 30 pmol of SluCas9 and 90 pmol of sgRNA in P5 Primary Cell Nucleofector Solution (Lonza). After incubation at room temperature for 20 minutes, 10 μL of RNP complex were mixed with two hundred thousand of primary myoblasts resuspended in 10 μL of P5 Nucleofector Solution. For DOUBLE-cut screening, RNP complexes were first assembled for individual sgRNAs with 20 pmol of SluCas9 protein and 60 pmol of sgRNAs in 5 μL of P5 Nucleofector Solution. After incubation at room temperature for 20 minutes, the two RNP complexes (one for upstream sgRNA and one for downstream sgRNA) were mixed at 1:1 ratio and then further mixed with two hundred thousand of primary myoblasts resuspended in 10 μL of P5 Nucleofector Solution.
(§2) The Nucleofector 96-well Shuttle System (Lonza) was used to deliver the SluCa9/sgRNA RNPs into primary DM1 patient myoblasts using the nucleofection program CM138. Following nucleofection, myoblasts from each well of nucleofection shuttle were split into six wells of the 96-well cell culture plate (Greiner, 655090) coated with matrigel. The first three wells were treated with DMSO for 48 hrs before changing to fresh myoblast growth medium, and the other three wells were treated with 3 μM of DNA-PKi Compound 6 for 48 hrs before changing to fresh myoblast growth medium. 72 hrs post nucleofection, two wells of DMSO-treated myoblasts and two wells of DNA-PKi-treated myoblasts from each nucleofection were harvested for genomic DNA extraction using the Kingfisher Flex purification system (Thermal Fisher), whereas one well of DMSO-treated myoblasts and one well of DNA-PKi-treated myoblasts were stained for RNA foci by FISH staining.
(§3) Primary myoblasts were fixed for 15 min with 4% paraformaldehyde (PFA) and washed five times with 1×PBS for 10 min each at room temperature. Before staining, cells were permeabilized with 0.5% triton X-100 in 1×PBS for 5 min at room temperature, and then washed with 30% formamide and 2× saline-sodium citrate (SSC) mixture for 10 min at room temperature. Cells were then stained with 1 ng/μL of Cy3-PNA(CAG)5 probe (PNA Bio, F5001) diluted in 30% formamide, 2×SSC, 2 μg/mL BSA, 66 μg/mL yeast tRNA, and 2 mM vanadyl complex for 15 min at 80° C. Following probe staining, cells were then washed in 30% formamide and 2×SSC mixture for 30 min at 42° C., then washed in 30% formamide and 2×SSC mixture for 30 min at 37° C., and then washed in 1×SSC solution for 10 min at room temperature, and finally washed in 1×PBS for 10 min at room temperature. Cells were next stained with anti-MBNL1 antibody (Santa Cruz, 3A4) diluted in 1% bovine serum albumin (BSA) for overnight at 4° C., and washed twice with 1×PBS for 10 min each at room temperature. Cells were then incubated with the secondary antibody goat anti-rabbit Alexa 647 (Thermo Fisher, A32728) diluted in 1% BSA for 1 hr at room temperature, and washed twice with 1×PBS for 10 min each at room temperature. Next, cells were stained with Hoechst solution (Thermo Fisher, H3569) at 0.1 mg/ml for 5 min, and washed once with 1×PBS for 5 min. PBS was aspirated and fresh 100 μl of fresh PBS is added to each well. High-throughput acquisition of images was completed with the ImageXpress Micro Confocal High-Content Imaging System (Molecular Devices).

[2] = test system: CAG foci in primary DM1 patient myoblasts; experiment: Single-cut screening: CAG foci staining; format: cell-based, human; settings: single sgRNA; for % of CAG foci positive nuclei (DNA-PKi): DNA-PKi treated
Procedure: as §3, with “Devices). RNA foci quantifications were accomplished with a customized analysis module of the MetaXpress program (Molecular Devices).” for “Devices).”
In addition to CUG foci staining, CAG foci staining was also performed, which is formed either by antisense transcript emanating from the downstream SIX5 gene or by the inversion of the CTG repeat sequence induced by individual SuCas9 sgRNAs.

[3] = test system: 3′ UTR of the human DMPK gene; experiment: Single-cut screening: indel editing efficiency by Sanger sequencing and ICE analysis in primary DM1 patient myoblasts; format: cell-based; settings: single SluCas9 sgRNA RNP in primary DM1 patient myoblasts; Sanger sequencing and ICE analysis; vehicle-treated samples
Procedure: Genomic DNA of DM1 myoblasts was isolated with the Kingfisher Flex purification system (Thermal Fisher) in 96-well format following the manufacturer's instruction. The DMPK 3′ UTR region was amplified using GoTaq Green Master Mix (Promega) and PCR primers flanking the 3′ UTR region. […] Amplification was conducted using the following cycling parameters: 1 cycle at 95° C. for 2 min; 40 cycles of 95° C. for 30 sec, 63° C. for 30 sec, and 72° C. for 90 sec; 1 cycle at 72° C. for 5 min. Only the wild type allele is amplified by the PCR reaction. The PCR products were analyzed on the TapeStation system with High Sensitivity D5000 ScreenTape (Agilent Technologies).
PCR products were purified and sequenced by Sanger sequencing. […] Indel values were estimated using the ICE analysis algorithm (Synthego) with the chromatogram files obtained from Sanger sequencing.
as §1
The Nucleofector 96-well Shuttle System (Lonza) was used to deliver the SluCa9/sgRNA RNPs into primary DM1 patient myoblasts using the nucleofection program CM138. […] 72 hrs post nucleofection, two wells of DMSO-treated myoblasts and two wells of DNA-PKi-treated myoblasts from each nucleofection were harvested for genomic DNA extraction using the Kingfisher Flex purification system (Thermal Fisher), whereas one well of DMSO-treated myoblasts and one well of DNA-PKi-treated myoblasts were stained for RNA foci by FISH staining.
To assess the efficiency of individual SluCas9 sgRNAs for inducing indel editing and CTG repeat excision, single-cut screening was performed in which individual SluCas9 sgRNAs and recombinant SluCas9 protein were assembled into ribonucleoprotein (RNP) and delivered into primary DM1 patient myoblasts. […] Seventy-two (72) hrs post nucleofection, myoblasts were subjected to either genomic DNA isolation or RNA foci staining by fluorescence in situ hybridization (FISH).
Sanger sequencing and ICE analysis were then performed to quantify the frequency of indels induced by individual sgRNAs. It is of note that only the vehicle-treated samples were used for ICE analysis.
Editing efficiency was assessed by Sanger sequencing and ICE analysis. […] The * indicates the sgRNAs with R2<0.9 in the ICE analysis (in-house QC standard for reliable ICE analysis).

[4] = test system: CUG foci in primary DM1 patient myoblasts; experiment: Dual-cut screening: FISH staining of CUG RNA foci; format: cell-based, human; settings: for % of CUG foci free nuclei (DNA-PKi) / % of CUG foci free nuclei (Vehicle): sgRNA pair, primary DM1 patient myoblasts; for % of CUG foci free nuclei (DNA-PKi): 3 μM DNA-PKi Compound 6 for 48 hours; for % of CUG foci free nuclei (Vehicle): vehicle (DMSO)
Procedure: as §1, §2
as §3, with “Devices). RNA foci quantifications were accomplished with a customized analysis module of the MetaXpress program (Molecular Devices).” for “Devices).”
To assess the efficiency of SluCas9 sgRNA pairs for inducing CTG repeat excision, Dual-cut screening was performed in which individual SluCas9 sgRNAs and recombinant SluCas9 protein were assembled into ribonucleoprotein (RNP) and delivered into primary DM1 patient myoblasts. Nucleofected myoblasts were treated with either DMSO (vehicle) or 3 μM of DNA-dependent Protein Kinase Inhibitor (DNA-PKi) Compound 6 for 48 hours. […]

Substance	% of CUG foci free nuclei (DNA-PKi) [1] [%]	% of CUG foci free nuclei (Vehicle) [1] [%]	% of CAG foci positive nuclei (DNA-PKi) [2] [%]	% of CAG foci positive nuclei (Vehicle) [2] [%]	Indel efficiency [3] [%]	% of CUG foci free nuclei (DNA-PKi) [4] [%]	% of CUG foci free nuclei (Vehicle) [4] [%]	RNA foci reduction (CUG foci, FISH) ([4]; dual-cut sgRNA pairs, with and without DNA-PKi)
AGCGGTTGTGAACTGGCAGGCG (guide RNA; chemistry not fully specified) [SluU19]	69.93	19.3	0.83	1.54	48	–	–	–
TCGCGCCAGACGCTCCCCAGAG (guide RNA; chemistry not fully specified) [SluD35]	12.47	6.61	1.13	1.04	0	–	–	–
cgcggacccggcccctccctcc (CGCGGACCCGGCCCCTCCCTCC; guide RNA; chemistry not fully specified) [SluU53]	61.52	22.52	2.9	1.44	31	–	–	–
CTTTTGCCAAACCCGCTTTTTC (guide RNA; chemistry not fully specified) [SluD41]	37.15	8.97	1.44	1.33	6	–	–	–
SluU64 + SluD06 (guide 1 GGGCTCGAAGGGTCCTTGTAGC; guide 2 CCAGGCTGAGGCCCTGACGTGG; guide RNA; listed as DNA, chemistry not fully specified)	–	–	–	–	–	86.59	67.21	–
SluU62 + SluD18 (guide 1 AGGACCCTTCGAGCCCCGTTCG; guide 2 TGGAGGATGGAACACGGACGGC; guide RNA; listed as DNA, chemistry not fully specified)	–	–	–	–	–	89.32	57.17	–
SluU63 + SluD14 (guide 1 GGGGCTCGAAGGGTCCTTGTAG; guide 2 ATGGGCAAACTGCAGGCCTGGG; guide RNA; listed as DNA, chemistry not fully specified)	–	–	–	–	–	86	67.35	–
SluU63 + SluD06 (guide 1 GGGGCTCGAAGGGTCCTTGTAG; guide 2 CCAGGCTGAGGCCCTGACGTGG; guide RNA; listed as DNA, chemistry not fully specified)	–	–	–	–	–	88.45	66.82	–
SluU64 + SluD18 (guide 1 GGGCTCGAAGGGTCCTTGTAGC; guide 2 TGGAGGATGGAACACGGACGGC; guide RNA; listed as DNA, chemistry not fully specified)	–	–	–	–	–	89.74	72.51	–
SluU62 + SluD14 (guide 1 AGGACCCTTCGAGCCCCGTTCG; guide 2 ATGGGCAAACTGCAGGCCTGGG; guide RNA; listed as DNA, chemistry not fully specified)	–	–	–	–	–	85.7	59.6	–
SluU63 + SluD18 (guide 1 GGGGCTCGAAGGGTCCTTGTAG; guide 2 TGGAGGATGGAACACGGACGGC; guide RNA; listed as DNA, chemistry not fully specified)	–	–	–	–	–	88.15	68.62	–
U64+D34: pair of SluCas9 guides U64 and D34 (guide 1 GGGCTCGAAGGGTCCTTGTAGC; guide 2 CGCGCCAGACGCTCCCCAGAGC; listed as DNA, chemistry not fully specified)	–	–	–	–	–	–	–	successfully reduced RNA foci
SluU62 + SluD06 (guide 1 AGGACCCTTCGAGCCCCGTTCG; guide 2 CCAGGCTGAGGCCCTGACGTGG; guide RNA; listed as DNA, chemistry not fully specified)	–	–	–	–	–	86.07	49.15	–
